For one assay, the target named is T1, USP7 (Homo sapiens, UniProt Q93009).
T1 construct: USP7, construct USP7 (208-1102) 6*His, Viva Biotech; 6xHis (C); purchased Viva Biotech
T1 sequence (Q93009 208-1102): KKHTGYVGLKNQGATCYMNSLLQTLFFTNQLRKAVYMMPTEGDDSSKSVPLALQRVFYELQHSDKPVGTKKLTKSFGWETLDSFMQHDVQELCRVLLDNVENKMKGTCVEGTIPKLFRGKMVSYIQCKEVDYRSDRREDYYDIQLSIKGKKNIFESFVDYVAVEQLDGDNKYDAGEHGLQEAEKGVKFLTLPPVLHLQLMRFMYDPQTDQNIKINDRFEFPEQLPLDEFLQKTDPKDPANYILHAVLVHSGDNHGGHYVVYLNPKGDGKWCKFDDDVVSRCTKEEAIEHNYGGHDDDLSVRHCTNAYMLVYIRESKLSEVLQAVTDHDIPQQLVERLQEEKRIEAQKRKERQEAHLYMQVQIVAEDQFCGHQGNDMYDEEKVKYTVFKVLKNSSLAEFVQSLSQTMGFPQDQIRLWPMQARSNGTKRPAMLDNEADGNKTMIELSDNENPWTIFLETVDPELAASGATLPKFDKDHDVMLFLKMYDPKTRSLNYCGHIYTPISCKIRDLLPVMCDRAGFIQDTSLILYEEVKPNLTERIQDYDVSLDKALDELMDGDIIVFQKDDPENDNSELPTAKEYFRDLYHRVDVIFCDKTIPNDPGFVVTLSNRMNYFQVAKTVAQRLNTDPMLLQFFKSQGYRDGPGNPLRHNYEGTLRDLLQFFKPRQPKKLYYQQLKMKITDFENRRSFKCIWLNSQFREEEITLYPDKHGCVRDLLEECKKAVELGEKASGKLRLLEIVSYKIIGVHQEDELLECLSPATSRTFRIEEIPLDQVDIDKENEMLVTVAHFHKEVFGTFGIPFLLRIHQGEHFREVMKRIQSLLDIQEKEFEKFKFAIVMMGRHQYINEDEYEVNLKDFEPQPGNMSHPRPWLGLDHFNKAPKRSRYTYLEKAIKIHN
Nature of the assay: USP7 Assay A (Ubitquin-Rhodamine 110 Assay). It counts as biochemical. The following applies: USP7 activity in USP7 assay A and B (table does not say which assay per compound); read-out: USP7_IC50. An outline of the steps:
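Enzyme and compound sat together for 30 min before Ub-Rh110 was added, in buffer of 20 mM Tris-HCl (pH 8.0), 1 mM GSH, 0.03% BGG and 0.01% Triton X-100.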
For `O=C(C1CCC(Oc2cccc(F)n2)CC1)N1CCC(O)(Cn2cnc3c(cnn3-c3ccc(F)cc3)c2=O)CC1` (stereo not shown) [Compound I-740], the IC50 was 200 to 1000 nM. In the case of `O=C(C1CCC(Oc2cccc(F)n2)CC1)N1CCC(O)(Cn2cnc3c(cnn3-c3ccccc3)c2=O)CC1` (stereo not shown) [Compound I-741], the IC50 was less than 200 nM. Still for that read-out and setting: with `O=C(C1CCC(Oc2cccc(F)n2)CC1)N1CCC(O)(Cn2cnc3c(cnn3-c3ccccc3)c2=O)CC1` (stereo not shown) [Compound I-742] the figure was 200 to 1000 nM; with `O=C(C1CCC(Oc2ccc(F)cn2)CC1)N1CCC(O)(Cn2cnc3c(cnn3-c3ccccc3)c2=O)CC1` (stereo not shown) [Compound I-743], 1000 to 10000 nM. For the compound `O=C(C1CCC(Oc2ccc(F)cn2)CC1)N1CCC(O)(Cn2cnc3c(cnn3-c3ccccc3)c2=O)CC1` (stereo not shown) [Compound I-744], the IC50 lay in the range of 200 to 1000 nM. Same read-out and setting: to `CC1(C(=O)N2CCC(O)(Cn3cnc4c(cnn4-c4ccc(F)cc4)c3=O)CC2)CCC(Oc2ccccn2)CC1` (stereo not shown) [Compound I-745] belongs 1000 to 10000 nM; to `CC1(C(=O)N2CCC(O)(Cn3cnc4c(cnn4-c4ccc(F)cc4)c3=O)CC2)CCC(Oc2ccccn2)CC1` (stereo not shown) [Compound I-746], 1000 to 10000 nM; to `O=C(C1CCC(Oc2ncccn2)CC1)N1CCC(O)(Cn2cnc3c(cnn3-c3ccc(F)cc3)c2=O)CC1` (stereo not shown) [Compound I-747], 1000 to 10000 nM. With `O=C(C1CCC(Oc2ncccn2)CC1)N1CCC(O)(Cn2cnc3c(cnn3-c3ccc(F)cc3)c2=O)CC1` (stereo not shown) [Compound I-748], the IC50 was 200 to 1000 nM.

Turning to `O=C(C1CCC(Oc2cccnc2)CC1)N1CCC(O)(Cn2cnc3c(cnn3-c3ccc(F)cc3)c2=O)CC1` (stereo not shown) [Compound I-749], the IC50 was less than 200 nM. The same measure, in the same setting: with `O=C(C1CCC(Oc2cccnc2)CC1)N1CCC(O)(Cn2cnc3c(cnn3-c3ccc(F)cc3)c2=O)CC1` (stereo not shown) [Compound I-750] the figure was 200 to 1000 nM; with `O=C(C1CCC(Oc2ccncc2)CC1)N1CCC(O)(Cn2cnc3c(cnn3-c3ccc(F)cc3)c2=O)CC1` (stereo not shown) [Compound I-751], 1000 to 10000 nM.

As to `O=C(C1CCC(Oc2ccncc2)CC1)N1CCC(O)(Cn2cnc3c(cnn3-c3ccc(F)cc3)c2=O)CC1` (stereo not shown) [Compound I-752], the IC50 is less than 200 nM. Still for that read-out and setting: to `Cn1ccc(OC2CCC(C(=O)N3CCC(O)(Cn4cnc5c(cnn5-c5ccc(F)cc5)c4=O)CC3)CC2)n1` (stereo not shown) [Compound I-753] belongs 200 to 1000 nM. On the same count and under the same terms, with `Cn1ccc(OC2CCC(C(=O)N3CCC(O)(Cn4cnc5c(cnn5-c5ccc(F)cc5)c4=O)CC3)CC2)n1` (stereo not shown) [Compound I-754] the figure was 200 to 1000 nM; with `Cc1cc(OC2CCC(C(=O)N3CCC(O)(Cn4cnc5c(cnn5-c5ccc(F)cc5)c4=O)CC3)CC2)no1` (stereo not shown) [Compound I-755], 200 to 1000 nM. Regarding `Cc1cc(OC2CCC(C(=O)N3CCC(O)(Cn4cnc5c(cnn5-c5ccc(F)cc5)c4=O)CC3)CC2)no1` (stereo not shown) [Compound I-756], the IC50 was in the range of 200 to 1000 nM.

With `Cn1cc(OC2CCC(C(=O)N3CCC(O)(Cn4cnc5c(cnn5-c5ccc(F)cc5)c4=O)CC3)CC2)cn1` (stereo not shown) [Compound I-757], the IC50 is 200 to 1000 nM. Still for that read-out and setting: to `Cn1cc(OC2CCC(C(=O)N3CCC(O)(Cn4cnc5c(cnn5-c5ccc(F)cc5)c4=O)CC3)CC2)cn1` (stereo not shown) [Compound I-758] belongs 200 to 1000 nM; to `O=C(N1CCC(O)(Cn2cnc3c(cnn3-c3ccc(F)cc3)c2=O)CC1)N1CC[C@H]1Cc1ccccc1` [Compound I-760], 1000 to 10000 nM; to `O=C(N1CCC(O)(Cn2cnc3c(cnn3-c3ccc(F)cc3)c2=O)CC1)N1CCc2cn[nH]c2C1` [Compound I-761], less than 200 nM.

As for `Cn1ncc2c1CN(C(=O)N1CCC(O)(Cn3cnc4c(cnn4-c4ccc(F)cc4)c3=O)CC1)CC2` [Compound I-762], the IC50 was in the range of 1000 to 10000 nM. For `Cn1nccc1NC1CCC(C(=O)N2CCC(O)(Cn3cnc4c(cnn4-c4ccc(F)cc4)c3=O)CC2)CC1` (stereo not shown) [Compound I-763], the IC50 lay within 1000 to 10000 nM. The same measure, in the same setting: with `Cn1nccc1NC1CCC(C(=O)N2CCC(O)(Cn3cnc4c(cnn4-c4ccc(F)cc4)c3=O)CC2)CC1` (stereo not shown) [Compound I-764] the figure was 200 to 1000 nM; with `Cn1ccc(NC2CCC(C(=O)N3CCC(O)(Cn4cnc5c(cnn5-c5ccc(F)cc5)c4=O)CC3)CC2)n1` (stereo not shown) [Compound I-765], 1000 to 10000 nM. On the same count and under the same terms, with `Cn1ccc(NC2CCC(C(=O)N3CCC(O)(Cn4cnc5c(cnn5-c5ccc(F)cc5)c4=O)CC3)CC2)n1` (stereo not shown) [Compound I-766] the figure was 200 to 1000 nM; with `O=C(C1CCC(Nc2ccccc2)CC1)N1CCC(O)(Cn2cnc3c(cnn3-c3ccc(F)cc3)c2=O)CC1` (stereo not shown) [Compound I-767], 200 to 1000 nM; with `O=C(C1CCC(Nc2ccccc2)CC1)N1CCC(O)(Cn2cnc3c(cnn3-c3ccc(F)cc3)c2=O)CC1` (stereo not shown) [Compound I-768], less than 200 nM. Same read-out and setting: with `O=C(C1CCC(NC2CC2)CC1)N1CCC(O)(Cn2cnc3c(cnn3-c3ccc(F)cc3)c2=O)CC1` (stereo not shown) [Compound I-769] the figure was 200 to 1000 nM. Consider `O=C(c1cnc(NC2CC2)o1)N1CCC(O)(Cn2cnc3c(cnn3-c3ccc(Cl)cc3)c2=O)CC1` [Compound I-771], for which the IC50 lay in the range of 200 to 1000 nM. The same measure, in the same setting: to `Cn1cc(C(=O)N2CCC(O)(Cn3cnc4c(cnn4-c4ccc(Cl)cc4)c3=O)CC2)cn1` [Compound I-772] belongs 200 to 1000 nM; to `Cn1cc(-c2ccc(-n3ncc4c(=O)n(CC5(O)CCN(C(=O)C6(C)CC6)CC5)cnc43)cc2)cn1` [Compound I-775], 200 to 1000 nM.

In the case of `Cn1cc(-c2ccc(-n3ncc4c(=O)n(CC5(O)CCN(C(=O)c6cnc(C7CC7)o6)CC5)cnc43)cc2)cn1` [Compound I-776], the IC50 is less than 200 nM. The same measure, in the same setting: with `Cc1cnn(-c2ccc(-n3ncc4c(=O)n(CC5(O)CCN(C(=O)c6cnc(C7CC7)o6)CC5)cnc43)cc2)c1` [Compound I-779] the figure was less than 200 nM.

For `O=C(c1cnc(C2CC2)o1)N1CCC(O)(Cn2cnc3c(cnn3-c3ccc(-n4cccn4)cc3)c2=O)CC1` [Compound I-780], the IC50 is less than 200 nM. Turning to `CC1(C(=O)N2CCC(O)(Cn3cnc4c(cnn4-c4ccc(-n5cccn5)cc4)c3=O)CC2)CC1` [Compound I-781], the IC50 was 200 to 1000 nM. Regarding `CC1(C(=O)N2CCC(O)(Cn3cnc4c(cnn4-c4ccc(-n5cccn5)cc4)c3=O)CC2)CCC1` [Compound I-782], the IC50 is less than 200 nM.

As to `C[C@@]1(O)CCN(c2ccc(-n3ncc4c(=O)n(CC5(O)CCN(C(=O)C6CCCCC6)CC5)cnc43)cc2)C1` [Compound I-783], the IC50 lay within 200 to 1000 nM. In the case of `O=C(C[C@@H](C(F)F)n1ccc(F)n1)N1CCC(O)(Cn2cnc3c(cnn3-c3ccc(N4CC5CC5C4)cc3)c2=O)CC1` (stereo partly shown) [Compound I-784], the IC50 was less than 200 nM.

On to `O=C(C[C@H](C(F)F)n1ccc(F)n1)N1CCC(O)(Cn2cnc3c(cnn3-c3ccc(N4CC5CC5C4)cc3)c2=O)CC1` (stereo partly shown) [Compound I-785], for which the IC50 was in the range of 200 to 1000 nM.

In the case of `CC1(C(=O)N2CCC(O)(Cn3cnc4c(cnn4-c4ccc(NC5CCC(F)(F)CC5)cc4)c3=O)CC2)CC1` [Compound I-786], the IC50 lay within 200 to 1000 nM. Same read-out and setting: to `O=C(C[C@H](C(F)F)n1ccc(F)n1)N1CCC(O)(Cn2cnc3c(cnn3-c3cccc(N4CCOCC4)c3)c2=O)CC1` [Compound I-788] belongs 1000 to 10000 nM; to `O=C(C[C@@H](C(F)F)n1ccc(F)n1)N1CCC(O)(Cn2cnc3c(cnn3-c3cccc(N4CCOCC4)c3)c2=O)CC1` [Compound I-789], less than 200 nM. Consider `O=C(C[C@@H](C(F)F)n1ccc(F)n1)N1CCC(O)(Cn2cnc3c(cnn3-c3cccc(N4CC5CC5C4)c3)c2=O)CC1` (stereo partly shown) [Compound I-790], for which the IC50 was less than 200 nM. For `O=C(C[C@H](C(F)F)n1ccc(F)n1)N1CCC(O)(Cn2cnc3c(cnn3-c3cccc(N4CC5CC5C4)c3)c2=O)CC1` (stereo partly shown) [Compound I-791], the IC50 fell in the range of 200 to 1000 nM. Still for that read-out and setting: to `CN1CCN(c2cccc(-n3ccc4c(=O)n(CC5(O)CCN(C(=O)C[C@H](C(F)F)n6cccn6)CC5)cnc43)c2)CC1` [Compound I-792] belongs 200 to 1000 nM.

With `CN1CCN(c2cccc(-n3ccc4c(=O)n(CC5(O)CCN(C(=O)C[C@@H](C(F)F)n6cccn6)CC5)cnc43)c2)CC1` [Compound I-793], the IC50 is less than 200 nM. On the same count and under the same terms, to `Cn1nccc1O[C@H]1CC[C@H](C(=O)N2CCC(O)(Cn3cnc4c(ccn4-c4ccc(F)cc4)c3=O)CC2)CC1` [Compound I-794] belongs 200 to 1000 nM; to `Cc1ccc(-n2ncc3c(=O)n(CC4(O)CCN(C(=O)C[C@H](C(F)F)n5ccc(F)n5)CC4)cnc32)cc1` [Compound I-796], less than 200 nM; to `Cc1ccc(-n2ncc3c(=O)n(CC4(O)CCN(C(=O)C[C@@H](C(F)F)n5ccc(F)n5)CC4)cnc32)cc1` [Compound I-797], 1000 to 10000 nM. On to `O=C(c1cnn(C2CC2)c1)N1CCC(O)(Cn2cnc3c(cnn3-c3ccc(C4CC4)cc3)c2=O)CC1` [Compound I-798], for which the IC50 was 200 to 1000 nM.

In the case of `Cc1ncc(C(=O)N2CCC(O)(Cn3cnc4c(cnn4-c4ccc(C5CC5)cc4)c3=O)CC2)o1` [Compound I-799], the IC50 is 200 to 1000 nM. For the compound `Cc1cc(N[C@H]2CC[C@H](C(=O)N3CCC(O)(Cn4cnc5c(cnn5-c5ccc(F)cc5)c4=O)CC3)CC2)no1` [Compound I-806], the IC50 was 200 to 1000 nM.

In the case of `Cc1cc(N[C@H]2CC[C@@H](C(=O)N3CCC(O)(Cn4cnc5c(cnn5-c5ccc(F)cc5)c4=O)CC3)CC2)no1` [Compound I-807], the IC50 was in the range of 1000 to 10000 nM. Take `CN1CC(O)(COc2ccc(-n3ncc4c(=O)n(CC5(O)CCN(C(=O)c6ccc(F)cc6)CC5)cnc43)cc2)C1` [Compound I-816]: the IC50 was less than 200 nM.

Consider `O=C(c1cnc(C2CC2)o1)N1CCC(O)(Cn2cnc3c(cnn3-c3ccc(OC4CCC(F)(F)CC4)cc3)c2=O)CC1` [Compound I-817], for which the IC50 was less than 200 nM.

Still in this assay, the particulars now being: USP7 assay A and B (table does not say which assay per compound); read-out: USP7_IC50.
Take `C#CC(=O)N1CC[C@H]1C(=O)N1CCC(O)(Cn2cnc3c(cnn3-c3ccc(F)cc3)c2=O)CC1` [Compound I-803]: the IC50 is 200 to 1000 nM. For `C=CS(=O)(=O)N[C@H](Cc1ccccc1)C(=O)N1CCC(O)(Cn2cnc3c(cnn3-c3ccccc3)c2=O)CC1` [Compound I-814], the IC50 was 200 to 1000 nM.

The values are drawn from patent US9902728B2, “Pyrrolo and pyrazolopyrimidines as ubiquitin-specific protease 7 inhibitors” (Forma Therapeutics, Inc., priority 2014, dated 2018).
